Source: US20200009247A1, “DRUG COMBINATIONS” (ASTEX PHARMACEUTICALS, INC., priority 2013, published 2020)
Converted amounts (≈) assume the structure as drawn. Like-named read-outs stand apart in the source and are kept apart here. Values belong to the compound of their own block, whether it stands above or below them.

What was measured:
[1] = test system: DNA methylation (CMV-EE210 cell line, silenced GFP transgene); assay: cell-based green fluorescent protein (GFP) assay for demethylating activity; conditions: concentration at which GFP expression level is reduced from g3 to g1/2; read-out: GFP50
Procedure: The demethylating activity of the compounds was tested in a cell-based green fluorescent protein (GFP) assay. In the assay, a decrease in methylation resulting from exposure to a methylation inhibitor leads to GFP expression, and is readily scored.
The CMV-EE210 cell line containing the epigenetically silenced GFP transgene was used to assay for reactivation of GFP expression by flow cytometry. CMV-EE210 was made by transfecting NIH 3T3 cells with the pTR-UF/UF1/UF2 plasmid, which contained pBS(+) (Stratagene, Inc.) with a cytomegalovirus (CMV) promoter driving a humanized GFP gene adapted for expression in mammalian cells. After transfection, high-level GFP expressing cells were initially selected by FACS analysis and sorting using a MoFlo cytometer (Cytomation, Inc.).
Decitabine, a potent inhibitor of mammalian DNMT1, was used as a positive control. […] Cells were then seeded to 30% confluence (˜5000 cell/well) in a 96-well plate containing the test compounds, and grown for three days in at 37 ° C. in 5% CO2.
The plates were examined under a fluorescent microscope using a 450-490 excitation filter (13 filter cube, Leica, Deerfield Ill.). Wells were scored gl positive, g2 positive, or g3 if GFP was expressed in 10%, 30%, >75% of viable cells, respectively.
Table 1 provides the results of the test for decitabine and the test compounds as DNA methylation inhibitors. GFP50 is the concentration of an inhibitor at which the Green Fluorescent Protein (GFP) expression level is reduced from g3 to g1/2.

[2] = single dose pharmacokinetics in monkeys; conditions: single dose 10 mg/kg
solubility = assay type: physicochemical
Description: The good chemical stability taken together with the excellent solubility identified the glycol/glycerin/ethanol (65:25:10) system as a formulation for use in animal experiments.

[3] = stability in solvent formulations by HPLC; assay type: physicochemical
Procedure: The stability of a compound of the invention in various formulations under various storage conditions was investigated. Stability was determined by HPLC at the designated time intervals.

[4] = test system: murine mammary carcinoma cells TS/A; assay: anti-tumor effect in TS/A murine breast cancer model (Example 6); assay type: in vivo, Balb/c mice; conditions: day 26 vs control mice; SGI-110 3 mg/kg SQ QDx5 days 1-5; anti-CTLA-4 mAb 100 μg at days 8, 11, 14 where combined
Procedure: TS/A is a murine mammary carcinoma originated from a moderately differentiated, weakly immunogenic mammary adenocarcinoma spontaneously arising in a 20-mo-old female BALB/c mouse.
The anti-mouse CTLA-4 was the CTLA-4 mAb 9H10, obtained from BioXCell (West Lebanon, N.H., USA), dosed at 100 μg/mouse in 200 μl (ip).
Balb/c mice (6/group) were injected SQ in the flank region with murine mammary carcinoma cells TS/A (2×10^5).
Control mice were injected with diluent for reconstitution. The effectiveness and tolerability of treatments was evaluated by tumor volume and body weight measurements, respectively.

LINE-1 DNA methylation = LINE-1 DNA methylation in blood samples; assay type: in vivo, cynomolgus monkeys; conditions: monkey blood samples; repeat dose 3 mg/kg; until day 22; p<0.05
Procedure: FIG. 3 illustrates the decrease in LINE1 methylation levels observed in blood samples drawn from cynomolgus monkeys on various days (D) after pretest.
In a repeat dose study, monkeys were dosed 3× weekly subcutaneously (3 mg/kg). […] (FIGS. 1 and 2.) Pharmacodynamic properties (not shown) were monitored and were acceptable. Blood samples were drawn periodically to assay LINE-1 DNA methylation.

Structure (SMILES): Nc1ncn([C@H]2CC(OP(=O)(O)OC[C@H]3O[C@@H](n4cnc5c(=O)[nH]c(N)nc54)CC3O)[C@@H](CO)O2)c(=O)n1 (stereo partly shown)
EC50 [1]: 400 nM

Structure (SMILES): Nc1ncn([C@H]2CC(O)[C@@H](COP(=O)(O)OC3C[C@H](n4cnc5c(=O)[nH]c(N)nc54)O[C@@H]3CO)O2)c(=O)n1 (stereo partly shown)
EC50 [1]: 700 nM

Structure (SMILES): Nc1ncn([C@H]2C[C@H](O)[C@@H](CO)O2)c(=O)n1 [Decitabine, 5-aza-2′-deoxycytidine]
AUC [2]: 340 ng·h/mL | Cmax [2]: 160 ng/mL | EC50 [1]: 500 nM

solubility (solubility; propylene glycol/glycerin/ethanol (65:25:10), organic solvent or mixture, read-out: maximum solubility): 130 to 150 mg/mL (≈ 233 to 269 mM) | solubility (solubility; water, aqueous, read-out: aqueous solubility): 20 mg/mL (≈ 35.9 mM) | AUC [2]: 1,469 ng·hr/mL | % decomposition per hour ([3]; DMSO/water (1:1, w/w), 25° C./60% relative humidity): 0.72 | Percent compound detected ([3]; DMSO/water (1:1, w/w), 25° C./60% relative humidity, 5 hours): 90.1% | Percent compound detected ([3]; DMSO/water (1:1, w/w), 25° C./60% relative humidity, time point 0): 93.7% | % decomposition per hour ([3]; DMSO/water (3:1, w/w), 25° C./60% relative humidity): 0.10 | Percent compound detected ([3]; DMSO/water (3:1, w/w), 25° C./60% relative humidity, 24 hours): 94.2% | Percent compound detected ([3]; DMSO/water (3:1, w/w), 25° C./60% relative humidity, time point 0): 96.6% | % decomposition per hour ([3]; Propylene Glycol/Glycerin/Ethanol (65:25:10, w/w/w), 2-8° C.): 0.00032 | Percent compound detected ([3]; Propylene Glycol/Glycerin/Ethanol (65:25:10, w/w/w), 2-8° C., 3 months): 95.1% | Percent compound detected ([3]; Propylene Glycol/Glycerin/Ethanol (65:25:10, w/w/w), 2-8° C., time point 0): 95.8% | % decomposition per hour ([3]; Propylene Glycol/Glycerin/Ethanol (65:25:10, w/w/w), 25° C./60% relative humidity): 0.013 | Percent compound detected ([3]; Propylene Glycol/Glycerin/Ethanol (65:25:10, w/w/w), 25° C./60% relative humidity, 3 months): 67.6% | Percent compound detected ([3]; Propylene Glycol/Glycerin/Ethanol (65:25:10, w/w/w), 25° C./60% relative humidity, time point 0): 95.8% | % decomposition per hour ([3]; Propylene glycol/Glycerin (70:30, v/v), room temperature): 0.021 | Percent compound detected ([3]; Propylene glycol/Glycerin (70:30, v/v), room temperature, 24 hours): 96.3% | Percent compound detected ([3]; Propylene glycol/Glycerin (70:30, v/v), room temperature, time point 0): 96.8% | stability in anhydrous DMSO ([3]; anhydrous DMSO): stable | improvement in stability ([3]; combined effects of cooling plus addition of ethanol to the propylene glycol/glycerin system): 66 fold | improvement in stability ([3]; propylene glycol/glycerin/ethanol (65:25:10), changing from warmer to colder storage conditions): 40 fold | % decomposition per hour ([3]; water, pH 7.0, 2-8° C.): 0.14 | Percent compound detected ([3]; water, pH 7.0, 2-8° C., 5 hours): 95.1% | Percent compound detected ([3]; water, pH 7.0, 2-8° C., time point 0): 95.8% | % decomposition per hour ([3]; water, pH 7.0, room temperature): 1.1 | Percent compound detected ([3]; water, pH 7.0, room temperature, 5 hours): 90.4% | Percent compound detected ([3]; water, pH 7.0, room temperature, time point 0): 95.8%
Structure (SMILES): Nc1ncn([C@H]2C[C@H](OP(=O)(O)OC[C@H]3O[C@@H](n4cnc5c(=O)[nH]c(N)nc54)C[C@@H]3O)[C@@H](CO)O2)c(=O)n1 [SGI-110]
tumor growth inhibition [4]: 62.9% | LINE-1 DNA methylation vs level prior to initial dosing (LINE-1 DNA methylation): Decreases
